Like-named read-outs stand apart in the source and are kept apart here.
What was measured:
[1] = Metabolic stability test in hepatocytes; format: in vitro ADME; conditions: cryopreserved hepatocytes in suspension; for hepatocyte CLint at 1 μM: read-out: In vitro Clint (μL/min/10^6 cells); for half-life at 1 μM: read-out: In vitro t1/2
Method: The test compound and the control drug verapamil powder were prepared into a high concentration stock solution using DMSO, and diluted to a 100 μM working solution with 50% acetonitrile/water before use, with final concentrations of 1 μM for the test compound and verapamil.
• 1) 49.5 mL of Williams' Medium E and 0.5 mL GlutaMAX were mixed as the incubation solution. The hepatocyte recovery solution and the incubation solution were pre-warmed in a 37° C. water bath for at least 15 minutes prior to use. • 2) A tube of cryopreserved hepatocytes was taken, ensuring that the hepatocytes were still in a cryogenic frozen state prior to resuscitation. The hepatocytes were quickly placed in a 37° C. water bath and gently shaken until all ice crystals were completely dispersed, sprayed with 70% ethanol and transferred to a biosafety cabinet. • 3) The contents of the hepatocyte tube were poured into a centrifuge tube containing 50 mL of recovery medium, which were centrifuged at 100 g for 10 minutes. After centrifugation, the recovery medium was aspirated, and sufficient incubation medium was added to obtain a cell suspension having a cell density of approximately 1.5×10^6 cells/mL. • 4) Cellometer Vision was used to count hepatocytes and determine the density of viable cells. The survival rate of hepatocytes must be greater than 75%. The hepatocyte suspension was diluted with incubation medium to a viable cell density of 0.5×10^6 cells/mL. • 5) A portion of hepatocyte suspension with a density of 0.5×10^6 cells/mL was boiled in water for 5 minutes to inactivate as a negative control. After cells were inactivated, substrate conversion mediated by non-cellular enzymes could be easily investigated.
• 1) 198 μL of the suspension of live or inactivated cells was transferred to a 96-well deep-well plate, which was then placed on a vortexer and preheated in an incubator for 10 minutes. Live cells were incubated in duplicate, while inactivated cells were incubated in single. • 2) 2 μL of 100 μM test compound or verapamil was added to each well for the reaction initiation, and the deep-well plate was placed back on the incubator vortexer. • 3) 25 μL of the suspension were taken from the incubated samples at 0, 15, 30, 60, 90, and 120 minutes, respectively, and added to 150 μL of acetonitrile containing internal standards (200 nM alprazolam, 200 nM labetalol, 2 μM ketoprofen, and 200 nM caffeine) to terminate the reaction. The mixture was vortexed for 10 minutes and centrifuged at 3220 g and 4° C. for 30 minutes. After centrifugation was completed, 100 μL of the supernatant and 100 μL of ultra-pure water were mixed well for UPLC-MS/MS analysis detection.
All data calculations were performed using Microsoft Excel software. Peak areas were detected by extracting the ion chromatogram. The in vitro half-life (t1/2) of the parent drug was detected by linear fitting of the natural logarithm of the percentage of parent drug […] with time.
The in vitro half-life (t1/2) was calculated by the slope: […]
In vitro intrinsic clearance (unit μL/min/10^6 cells) was calculated using the following formula:
[formula] • V=incubation volume per well (0.2 mL); • N=number of cells per well (0.1×10^6 cells)

[2] = target: voltage-gated potassium channel hERG (Homo sapiens (Human), UniProt Q12809); test: hERG potassium channel inhibitory activity test (manual patch clamp, HEK293); format: cell-based; conditions: HEK293 cells stably expressing hERG
Method: This experiment was conducted to detect the effect of compounds in five concentrations on hERG channel current, obtaining a dose-effect curve and calculating the IC50.
Cell line and cell culture: HEK293 cell line stably expressing the hERG ion channel (Cat. No.: K1236) was purchased from Invitrogen Company. […] When the cell density grows to 40% to 80% of the bottom area of the culture dish, the cells were digested with trypsin and passaged three times per week. Prior to the experiment, cells were cultured in a 3.5 cm culture dish at a density of 5×10^5, induced with 1 μg/mL doxycycline for 48 hours, and then the cells were digested and seeded on glass slides for subsequent manual patch clamp experiments. […]
Experimental procedure: A coverslip loaded with HEK293 cells in a culture dish was placed in the perfusion chamber of the microscope stage. […] The hERG current used to detect the test compound was continuously recorded for 120 seconds before administration to evaluate the stability of the hERG current generated by the test cells. […] Test of the inhibitory effect of the test compound on hERG current: First, the hERG current measured in the extracellular fluid containing 0.1% DMSO was used as the detection baseline. […] After each perfusion was completed, approximately 5 minutes were waited to allow the compounds to fully act on the cells, and hERG currents were synchronously recorded.

NUGC-3 cells = test: Anti-proliferation effect on NUGC-3 cells (Cell Counting Kit-8); format: cell-based; conditions: Homo sapiens, NUGC-3, 120 h; 5 days of treatment
Method: Cell line NUGC-3 (JCRB, JCRB0822) was cultured in RPMI 1640 (Invitrogen, 11875-085) medium supplemented with 10% (v/v) fetal bovine serum (BI, 04-002-1A), according to the standard instructions of the American Type Culture Collection. The cell line was authenticated by short tandem repeat profiling.
In the proliferation assay, 1000 NUGC-3 cells were seeded in a 96-well flat clear bottom, TC-treated plate (Corning, 3903) in 200 μL of medium per well, and allowed to recover overnight in culture medium. Compounds were added with increasing concentration, with DMSO treatment serving as a […] control. After 5 days of treatment, the plate was equilibrated to room temperature for 30 minutes, and the number of living cells was measured by the addition of the Cell Counting Kit-8 reagent (MCE, HY-K0301). Absorbance was measured on an Enspire (Perkin elme). The relative viability of each group was presented as the percentage change relative to the […] control group and then fit to a four-parameter logit non-linear curve using the program XLFit (IDBS)

CYP2C9 = CYP2C9 (Homo sapiens (Human), UniProt P11712); test: Inhibitory activity on CYP isoenzymes at a single concentration; format: in vitro ADME; conditions: pH 7.4, probe diclofenac; final compound concentration 10 μM; human liver microsomes; substrate diclofenac; read-out: Inhibition rate (%) CYP2C9
Source text: (§1) The buffer was filtered through a 0.45 μm filter.

CYP2D6 = CYP2D6 (Homo sapiens (Human), UniProt P10635); test: as above; format: in vitro ADME; conditions: pH 7.4, probe dextromethorphan; final compound concentration 10 μM; human liver microsomes; substrate dextromethorphan; read-out: Inhibition rate (%) CYP2D6
Source text: as §1

CYP3A4/5 = test: as above; format: in vitro ADME; conditions: final compound concentration 10 μM, human liver microsomes
Source text: as §1

[3] = pH 7.4, probe midazolam, substrate midazolam, read-out: Inhibition rate (%) CYP3A4/5 (Midazolam)

Chain of voltage-gated potassium channel hERG (Q12809 whole entry): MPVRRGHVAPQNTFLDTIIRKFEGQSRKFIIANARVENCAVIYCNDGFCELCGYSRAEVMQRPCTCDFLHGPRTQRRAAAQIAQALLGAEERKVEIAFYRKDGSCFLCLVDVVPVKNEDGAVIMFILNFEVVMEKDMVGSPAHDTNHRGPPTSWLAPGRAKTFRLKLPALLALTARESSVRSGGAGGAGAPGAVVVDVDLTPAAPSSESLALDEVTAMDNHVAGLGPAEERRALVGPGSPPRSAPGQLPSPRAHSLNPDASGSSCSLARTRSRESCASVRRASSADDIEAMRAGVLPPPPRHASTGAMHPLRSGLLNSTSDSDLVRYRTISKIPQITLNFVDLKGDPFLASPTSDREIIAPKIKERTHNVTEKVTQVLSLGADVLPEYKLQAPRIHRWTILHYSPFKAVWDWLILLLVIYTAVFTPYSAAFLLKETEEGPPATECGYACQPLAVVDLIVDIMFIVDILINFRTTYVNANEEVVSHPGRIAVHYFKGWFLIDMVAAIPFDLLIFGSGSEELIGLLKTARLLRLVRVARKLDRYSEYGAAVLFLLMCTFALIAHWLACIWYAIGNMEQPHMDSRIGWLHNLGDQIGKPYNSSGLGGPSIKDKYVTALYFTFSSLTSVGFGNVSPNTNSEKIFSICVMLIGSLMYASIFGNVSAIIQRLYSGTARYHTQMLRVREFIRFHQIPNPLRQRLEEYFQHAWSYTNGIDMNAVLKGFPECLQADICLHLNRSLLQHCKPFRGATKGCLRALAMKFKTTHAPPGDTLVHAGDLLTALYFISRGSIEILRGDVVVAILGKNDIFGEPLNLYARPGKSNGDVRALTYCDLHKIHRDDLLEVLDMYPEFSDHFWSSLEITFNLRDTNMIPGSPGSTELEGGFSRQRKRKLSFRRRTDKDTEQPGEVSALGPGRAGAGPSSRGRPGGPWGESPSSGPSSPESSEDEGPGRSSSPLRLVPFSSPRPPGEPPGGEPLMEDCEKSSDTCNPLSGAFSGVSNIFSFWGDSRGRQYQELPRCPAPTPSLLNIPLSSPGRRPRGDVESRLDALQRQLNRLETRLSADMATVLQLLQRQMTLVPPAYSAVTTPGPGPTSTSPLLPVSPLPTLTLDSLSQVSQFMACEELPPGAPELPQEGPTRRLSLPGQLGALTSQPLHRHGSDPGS
Chain of CYP2D6 (P10635 whole entry): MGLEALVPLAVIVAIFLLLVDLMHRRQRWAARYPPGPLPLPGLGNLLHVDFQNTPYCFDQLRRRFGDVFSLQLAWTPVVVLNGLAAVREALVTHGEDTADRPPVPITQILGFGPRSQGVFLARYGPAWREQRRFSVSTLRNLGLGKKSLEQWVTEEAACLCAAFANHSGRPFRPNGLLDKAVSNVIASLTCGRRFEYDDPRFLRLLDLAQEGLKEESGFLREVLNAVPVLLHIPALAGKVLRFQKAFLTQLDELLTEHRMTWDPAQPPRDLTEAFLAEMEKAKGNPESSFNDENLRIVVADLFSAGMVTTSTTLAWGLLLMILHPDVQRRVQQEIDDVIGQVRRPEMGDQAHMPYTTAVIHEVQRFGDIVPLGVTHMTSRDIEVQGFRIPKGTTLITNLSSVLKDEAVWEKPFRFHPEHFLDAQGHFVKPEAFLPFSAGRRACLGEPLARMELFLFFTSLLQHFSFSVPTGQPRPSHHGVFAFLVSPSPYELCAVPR
Chain of CYP2C9 (P11712 whole entry): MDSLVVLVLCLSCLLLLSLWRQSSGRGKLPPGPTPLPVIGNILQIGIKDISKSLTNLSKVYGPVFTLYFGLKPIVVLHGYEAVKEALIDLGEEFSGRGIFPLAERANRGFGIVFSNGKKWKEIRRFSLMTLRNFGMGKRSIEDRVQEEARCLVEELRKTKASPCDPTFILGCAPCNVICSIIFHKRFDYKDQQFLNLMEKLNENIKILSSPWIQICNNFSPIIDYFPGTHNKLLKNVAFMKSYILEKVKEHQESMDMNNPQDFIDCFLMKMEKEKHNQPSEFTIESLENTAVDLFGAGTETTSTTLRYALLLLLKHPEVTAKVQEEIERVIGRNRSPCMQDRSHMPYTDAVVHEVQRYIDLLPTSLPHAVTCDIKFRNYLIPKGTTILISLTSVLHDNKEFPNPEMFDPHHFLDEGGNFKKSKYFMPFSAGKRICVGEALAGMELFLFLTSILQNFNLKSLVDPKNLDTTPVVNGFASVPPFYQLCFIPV

COc1nc(C(=O)NS(C)(=O)=O)ccc1NCC#Cc1cc2c(N[C@@H]3CCN(C)C[C@@H]3F)cccn2c1CC(F)(F)F [Cpd-1, 5-((3-(8-(((3S,4R)-3-Fluoro-1-methylpiperidin-4-yl)amino)-3-(2,2,2-trifluoroethyl)indolizin-2-yl)prop-2-yn-1-yl)amino)-6-methoxy-N-(methylsulfonyl)picolinamide]
hepatocyte CLint at 1 μM ([1]; Human hepatocytes): < 2.7 µL/min/1e6 cells
half-life at 1 μM ([1]; Human hepatocytes): > 511 min
hepatocyte CLint at 1 μM ([1]; Mouse hepatocytes): < 2.7 µL/min/1e6 cells
half-life at 1 μM ([1]; Mouse hepatocytes): > 511 min
hepatocyte CLint at 1 μM ([1]; Rat hepatocytes): < 2.7 µL/min/1e6 cells
half-life at 1 μM ([1]; Rat hepatocytes): > 511 min
IC50 [2]: > 30 µM
IC50 (NUGC-3 cells): 100 nM
inhibition at 10 min, 10 µM (CYP2C9): 6.7%
inhibition at 10 min, 10 µM (CYP2D6): 1.6%
inhibition at 10 min, 10 µM (CYP3A4/5; [3]): 9.8%
inhibition at 10 min, 10 µM (CYP3A4/5; pH 7.4, probe testosterone, substrate testosterone, NI: no inhibition, read-out: Inhibition rate (%) CYP3A4/5 (Testosterone)): 3.7%

[2H]C([2H])([2H])Oc1nc(C(=O)NS(C)(=O)=O)ccc1NCC#Cc1cc2c(N[C@@H]3CCN(C)C[C@@H]3F)cccn2c1CC(F)(F)F [Cpd-2, 5-((3-(8-(((3S,4R)-3-Fluoro-1-methylpiperidin-4-yl)amino)-3-(2,2,2-trifluoroethyl)indolizin-2-yl)prop-2-yn-1-yl)amino)-6-(methoxy-d3)-N-(methylsulfonyl)picolinamide]
hepatocyte CLint at 1 μM ([1]; Human hepatocytes): < 2.7 µL/min/1e6 cells
half-life at 1 μM ([1]; Human hepatocytes): > 511 min
hepatocyte CLint at 1 μM ([1]; Mouse hepatocytes): < 2.7 µL/min/1e6 cells
half-life at 1 μM ([1]; Mouse hepatocytes): > 511 min
hepatocyte CLint at 1 μM ([1]; Rat hepatocytes): < 2.7 µL/min/1e6 cells
half-life at 1 μM ([1]; Rat hepatocytes): > 511 min
IC50 [2]: > 30 µM
IC50 (NUGC-3 cells): 58 nM
inhibition at 10 min, 10 µM (CYP2C9): 8.9%
inhibition at 10 min, 10 µM (CYP2D6): 7.2%
inhibition at 10 min, 10 µM (CYP3A4/5; [3]): 8.7%
